# Marks after values point to notes of the source that are not given here.
# Assays:
# Wistar rats [1] = assay: 90-day repeated dose oral toxicity study (OECD TG 408); assay type: in vivo, rat; conditions: for NOAEL, 90-day repeated-dose toxicity: OECD 408 v 2018, oral gavage
# Source text: Healthy and specific pathogen-free male and female (non-pregnant and nulliparous) Wistar Crl: WI(Han) rats were obtained from Charles River Laboratories (Germany). […] Upon arrival at BSL BIOSERVICE, the animals underwent an acclimatisation period of at least 5 days, and they were approximately 15–16 weeks old at the onset of the treatment period.
# Wistar rats [2] = assay: Higher-tier studies taken together (OECD TG 408, 414, 421/422, 443): NOAEL; conditions: over all higher-tier studies
# Procedure: All in vivo studies were conducted as oral gavage studies, selecting the oral route as most appropriate route of administration to reflect the worst-case exposure scenario. […] The OECD TG 443 included mating of first generation (F1) offspring to produce a second generation (F2), and the DIT and DNT cohorts.
# in vivo = conditions: for concentration at 1 h / Tmax / AUC(0-t) / Cmax: Wistar, rat, serum; for concentration at 1 h: oral; for Tmax / AUC(0-t) / Cmax: po
# Procedure: These studies were conducted similarly to OECD TG 417 applying 500 and 1000 mg/kg body weight (bw) test item via oral gavage to 10 males and 10 females per dose group. Focus of the toxicokinetic evaluation was on the measurement of the serum concentrations of the parent compounds and their (common) major metabolite p-hydroxybenzoic acid by […] in order to assess the systemic uptake and elimination of the parent compounds and this major metabolite [see also ECHA ([2017a])]. The limit of quantification was determined as 10 ng/mL for all parabens, and as 130 ng/mL for p-hydroxybenzoic acid. […] On account of these major aims, investigations of the faeces and urine were not included in the toxicokinetics screening studies.
# bacteria = conditions: OECD 471; ref ECHA dissemination portal; cited from earlier work
# mammalian cells = conditions: OECD 476; ref ECHA dissemination portal; cited from earlier work
# rats = conditions: OECD 478; ref ECHA dissemination portal; cited from earlier work
# [3] = parent compound, 500 mg/kg, female
# [4] = parent compound, 500 mg/kg, male
# [5] = parent compound, 1000 mg/kg, female
# [6] = parent compound, 1000 mg/kg, male
smiles,measurement,setting,value
"COC(=O)c1ccc(O)cc1 [Methyl paraben, Methyl 4-hydroxybenzoate]","NOAEL, 90-day repeated-dose toxicity",Wistar rats [1],NOAEL: 1000 (OECD 408; v 2018) mg/kg body weight/day
same,"NOAEL, 90-day repeated-dose toxicity",Wistar rats [1]; listed as methyl paraben,1000 mg/kg body weight/day
same,Accessory sex organs HP,Wistar rats [1]; P0,NAE / NAE
same,Adrenals HP,Wistar rats [1]; P0,NAE / NAE
same,Adrenals weight,Wistar rats [1]; P0,NAE / NAE
same,Brain weight,Wistar rats [1]; P0,NAE / NAE
same,Cervix HP,Wistar rats [1]; P0,NAE / NAE
same,Coagulating gland HP,Wistar rats [1]; P0,NAE / NAE
same,Coagulating gland weight,Wistar rats [1]; P0,NAE / NAE
same,Epididymis HP,Wistar rats [1]; P0,NAE / NAE
same,Epididymis weight,Wistar rats [1]; P0,NAE / NAE
same,Liver weight,Wistar rats [1]; P0,NAE / NAE
same,Mammary gland HP; females,Wistar rats [1]; P0,NAE / NAE
same,Mammary gland HP; males,Wistar rats [1]; P0,NAE / NAE
same,Oestrus cyclicity,Wistar rats [1]; P0,NAE / NAE
same,Ovary HP,Wistar rats [1]; P0,NAE / NAE
same,Ovary weight,Wistar rats [1]; P0,NAE / NAE
same,Oviduct HP,Wistar rats [1]; P0,NAE / NAE
same,Pituitary HP,Wistar rats [1]; P0,NAE / NAE
same,Pituitary weight,Wistar rats [1]; P0,NAE / NAE
same,Prostate HP,Wistar rats [1]; P0,NAE / NAE
same,Prostate weight,Wistar rats [1]; P0,NAE / NAE
same,Seminal vesicles HP,Wistar rats [1]; P0,NAE / NAE
same,Seminal vesicles weight,Wistar rats [1]; P0,NAE / NAE
same,Testis HP,Wistar rats [1]; P0,NAE / NAE
same,Testis weight,Wistar rats [1]; P0,NAE / NAE
same,Thyroid HP,Wistar rats [1]; P0,NAE / NAE
same,Thyroid stimulating hormone level,Wistar rats [1]; P0,NAE / NAE
same,Thyroid weight,Wistar rats [1]; P0,NAE / NAE
same,Triiodothyronine / thyroxine level,Wistar rats [1]; P0,NAE / NAE
same,Uterus HP (with cervix),Wistar rats [1]; P0,NAE / NAE
same,Uterus weight (with cervix),Wistar rats [1]; P0,NAE / NAE
same,Vagina HP,Wistar rats [1]; P0,NAE / NAE
same,Vaginal smears,Wistar rats [1]; P0,NAE / NAE
same,Signs of systemic toxicity,Wistar rats [1]; sub-chronic (90-day) oral application,did not induce any signs of systemic toxicity
same,NOAEL: Accessory sex organs HP,Wistar rats [2],1000 / 1000 mg/kg bw/day
same,NOAEL: Adrenals HP,Wistar rats [2],1000 / 1000 mg/kg bw/day
same,NOAEL: Adrenals weight,Wistar rats [2],1000 / 1000 mg/kg bw/day
same,NOAEL: Age at balano-preputial separation,Wistar rats [2],1000 / 1000 mg/kg bw/day
same,NOAEL: Age at vaginal opening,Wistar rats [2],1000 / 1000 mg/kg bw/day
same,NOAEL: Anogenital distance,Wistar rats [2],1000 / 1000 mg/kg bw/day
same,NOAEL: Auditory startle,Wistar rats [2],1000 / 1000 mg/kg bw/day
same,NOAEL: Brain HP,Wistar rats [2],1000 / 1000 mg/kg bw/day
same,NOAEL: Brain morphometric evaluation,Wistar rats [2],1000 / 1000 mg/kg bw/day
same,NOAEL: Brain weight,Wistar rats [2],1000 / 1000 mg/kg bw/day
same,NOAEL: Cervix HP,Wistar rats [2],1000 / 1000 mg/kg bw/day
same,NOAEL: Coagulating gland HP,Wistar rats [2],1000 / 1000 mg/kg bw/day
same,NOAEL: Coagulating gland weight,Wistar rats [2],1000 / 1000 mg/kg bw/day
same,NOAEL: Colloid area (thyroid HP),Wistar rats [2],1000 / 1000 mg/kg bw/day
same,NOAEL: Dystocia,Wistar rats [2],1000 / 1000 mg/kg bw/day
same,NOAEL: Epididymis HP,Wistar rats [2],1000 / 1000 mg/kg bw/day
same,NOAEL: Epididymis weight,Wistar rats [2],1000 / 1000 mg/kg bw/day
same,NOAEL: Fertility,Wistar rats [2],1000 / 1000 mg/kg bw/day
same,NOAEL: Foetal development,Wistar rats [2],1000 / 1000 mg/kg bw/day
same,NOAEL: Functional observation battery,Wistar rats [2],1000 / 1000 mg/kg bw/day
same,NOAEL: Genital abnormalities,Wistar rats [2],1000 / 1000 mg/kg bw/day
same,NOAEL: Gestation length,Wistar rats [2],1000 / 1000 mg/kg bw/day
same,NOAEL: Litter / pup weight,Wistar rats [2],1000 / 1000 mg/kg bw/day
same,NOAEL: Litter size,Wistar rats [2],1000 / 1000 mg/kg bw/day
same,NOAEL: Litter viability,Wistar rats [2],1000 / 1000 mg/kg bw/day
same,NOAEL: Liver weight,Wistar rats [2],1000 / 1000 mg/kg bw/day
same,NOAEL: Mammary gland HP; females,Wistar rats [2],1000 / 1000 mg/kg bw/day
same,NOAEL: Mammary gland HP; males,Wistar rats [2],1000 / 1000 mg/kg bw/day
same,NOAEL: Motor activity,Wistar rats [2],1000 / 1000 mg/kg bw/day
same,NOAEL: Nipple development,Wistar rats [2],1000 / 1000 mg/kg bw/day
same,"NOAEL: No. of implantations, corpora lutea",Wistar rats [2],1000 / 1000 mg/kg bw/day
same,NOAEL: No. of live births,Wistar rats [2],1000 / 1000 mg/kg bw/day
same,NOAEL: No. of ovarian follicles,Wistar rats [2],1000 / 1000 mg/kg bw/day
same,NOAEL: Oestrus cyclicity,Wistar rats [2],1000 / 1000 mg/kg bw/day
same,NOAEL: Offspring: learning & memory,Wistar rats [2],1000 / 1000 mg/kg bw/day
same,NOAEL: Ovary HP,Wistar rats [2],1000 / 1000 mg/kg bw/day
same,NOAEL: Ovary weight,Wistar rats [2],1000 / 1000 mg/kg bw/day
same,NOAEL: Oviduct HP,Wistar rats [2],1000 / 1000 mg/kg bw/day
same,NOAEL: Pituitary HP,Wistar rats [2],1000 / 1000 mg/kg bw/day
same,NOAEL: Pituitary weight,Wistar rats [2],1000 / 1000 mg/kg bw/day
same,NOAEL: Postimplantation loss,Wistar rats [2],1000 / 1000 mg/kg bw/day
same,NOAEL: Pre-implantation loss,Wistar rats [2],1000 / 1000 mg/kg bw/day
same,NOAEL: Presence of anomalies,Wistar rats [2],1000 / 1000 mg/kg bw/day
same,NOAEL: Prostate HP,Wistar rats [2],1000 / 1000 mg/kg bw/day
same,NOAEL: Prostate weight,Wistar rats [2],1000 / 1000 mg/kg bw/day
same,NOAEL: Pup development,Wistar rats [2],1000 / 1000 mg/kg bw/day
same,NOAEL: Reproduction,Wistar rats [2],1000 / 1000 mg/kg bw/day
same,NOAEL: Seminal vesicles HP,Wistar rats [2],1000 / 1000 mg/kg bw/day
same,NOAEL: Seminal vesicles weight,Wistar rats [2],1000 / 1000 mg/kg bw/day
same,NOAEL: Testis HP,Wistar rats [2],1000 / 1000 mg/kg bw/day
same,NOAEL: Testis weight,Wistar rats [2],1000 / 1000 mg/kg bw/day
same,NOAEL: Thyroid HP,Wistar rats [2],1000 / 1000 mg/kg bw/day
same,NOAEL: Thyroid stimulating hormone level,Wistar rats [2],1000 / 1000 mg/kg bw/day
same,NOAEL: Thyroid weight,Wistar rats [2],1000 / 1000 mg/kg bw/day
same,NOAEL: Time to mating,Wistar rats [2],1000 / 1000 mg/kg bw/day
same,NOAEL: Triiodothyronine / thyroxine level,Wistar rats [2],1000 / 1000 mg/kg bw/day
same,NOAEL: Uterus HP (with cervix),Wistar rats [2],1000 / 1000 mg/kg bw/day
same,NOAEL: Uterus weight (with cervix),Wistar rats [2],1000 / 1000 mg/kg bw/day
same,NOAEL: Vagina HP,Wistar rats [2],1000 / 1000 mg/kg bw/day
same,NOAEL: Vaginal smears,Wistar rats [2],1000 / 1000 mg/kg bw/day
same,concentration at 1 h,"in vivo; female, 500 mg/kg",338 ng/mL
same,concentration at 1 h,"in vivo; female, 1000 mg/kg",924 ng/mL
same,Tmax,"in vivo; female, 500 mg/kg",4.8 min
same,AUC(0-t),"in vivo; female, 500 mg/kg, AUC0-1 h, parent compound",6450 ng·h/mL
same,AUC(0-t),"in vivo; female, 500 mg/kg, AUC0–t, parent compound",9500 ng·h/mL
same,Cmax,"in vivo; female, 500 mg/kg, parent compound",21200 ng/mL
same,Tmax,"in vivo; female, 1000 mg/kg",4.8 min
same,AUC(0-t),"in vivo; female, 1000 mg/kg, AUC0-1 h, parent compound",11400 ng·h/mL
same,AUC(0-t),"in vivo; female, 1000 mg/kg, AUC0–t, parent compound",20500 ng·h/mL
same,Cmax,"in vivo; female, 1000 mg/kg, parent compound",33600 ng/mL
same,Cmax,"in vivo; female, 1000 mg/kg, parent compound, females",~34000 ng/mL
same,concentration at 1 h,"in vivo; male, 500 mg/kg",172 ng/mL
same,concentration at 1 h,"in vivo; male, 1000 mg/kg",552 ng/mL
same,Tmax,"in vivo; male, 500 mg/kg",4.8 min
same,AUC(0-t),"in vivo; male, 500 mg/kg, AUC0-1 h, parent compound",1110 ng·h/mL
same,AUC(0-t),"in vivo; male, 500 mg/kg, AUC0–t, parent compound",1790 ng·h/mL
same,Cmax,"in vivo; male, 500 mg/kg, parent compound",6200 ng/mL
same,AUC(0-t),"in vivo; male, 1000 mg/kg, AUC0-1 h, parent compound",4640 ng·h/mL
same,AUC(0-t),"in vivo; male, 1000 mg/kg, AUC0–t, parent compound",6150 ng·h/mL
same,Cmax,"in vivo; male, 1000 mg/kg, parent compound",10800 ng/mL
same,Cmax,"in vivo; male, 1000 mg/kg, parent compound, males",~11000 ng/mL
same,Rank of maximum serum concentration among the four parabens,in vivo; parent compound,highest maximum serum concentrations
same,AUC0-1 h/AUC0–t,in vivo; [3],68%
same,C1h/Cmax,in vivo; [3],1.6%
same,Clast,in vivo; [3],77.3 ng/mL
same,tlast,in vivo; [3],8.0 h
same,AUC0-1 h/AUC0–t,in vivo; [4],62%
same,C1h/Cmax,in vivo; [4],2.8%
same,Clast,in vivo; [4],48.6 ng/mL
same,tlast,in vivo; [4],8.0 h
same,AUC0-1 h/AUC0–t,in vivo; [5],55%
same,C1h/Cmax,in vivo; [5],2.7%
same,Clast,in vivo; [5],179 ng/mL
same,tlast,in vivo; [5],8.0 h
same,AUC0-1 h/AUC0–t,in vivo; [6],75%
same,C1h/Cmax,in vivo; [6],5.1%
same,Clast,in vivo; [6],122 ng/mL
same,tlast,in vivo; [6],8.0 h
same,Mutagenicity in bacteria classification,bacteria,"Not mutagenic (OECD 471; 1982, 1991)"
same,Mutagenicity in mammalian cells classification,mammalian cells,Not mutagenic [c] (OECD 476; 2019)
same,Genetic toxicity in vivo (rats) classification,rats,Not clastogenic (OECD 478; 1974) [d]
